These results are taken from a melting point compilation (Tetko et al.; mined from patent text by program, amines drawn as free bases though some values may be those of a salt).

Residues, ends and D or L forms follow the SMILES beside them. *: point of attachment. OiPr = CC(C)O* A value given as a limit tells only on which side of the number the result lay.

Consider `CC1=CC(C)(C)N2C(=O)C(=O)c3cccc1c32`, for which the melting point lay in the range of 170 to 176 °C. As for `Cc1ccc2c(c1)C(c1ccccc1Cl)C(=O)N2` (stereo not given), the figure is 208 °C; as for `CC(Oc1cccc(Cl)c1)c1nnc(N)s1` (stereo not given), 136 to 138 °C; as for `Cc1c(C)c([N+](=O)[O-])c(C)c2c1OC(C)(C)C2c1ccccc1` (stereo not given), 155 to 156 °C.

`Cn1ccnc1C1(CCCCc2ccc(N3C(=O)c4ccccc4C3=O)cc2)c2ccccc2-c2ccccc21`: the melting point lay in the range of 76 to 80 °C.

For `CC(=O)c1c(O)cccc1OCC(O)COc1ccc(Cl)cc1Cl` (stereo not given), the melting point was in the range of 130 to 132 °C. To `CC(=O)C1CCc2c([nH]c3ccc(Cl)cc23)C1` (stereo not given) belongs 159 to 161 °C. As for `Cc1cc(C)cc(C(=O)c2c(C(C)C)c(=O)[nH]c(=O)n2Cc2cc(F)nc(F)c2)c1`, the figure is 185 to 187 °C; as for `O=P(c1ccccc1)(c1ccc(F)cc1)c1ccc(F)cc1`, 103 to 105 °C; as for `CC1c2ccccc2CCN1C(=O)c1cc2ncc(Br)cn2n1` (stereo not given), 121 to 123 °C.

`Cn1ccnc1Sc1ccc([N+](=O)[O-])cc1` showed a melting point of 120 to 121 °C. As for `Cc1cc(Oc2ccc(N)cc2C(F)(F)F)n[nH]1`, the melting point lay in the range of 143 to 145 °C.

With `COc1ccc(-c2sc3c(c2CN(C)Cc2ccccc2)c(=O)c(C(C)O)cn3Cc2ccccc2F)cc1` (stereo not given), the melting point was 183 to 187 °C. Compound `COc1ccc(C(Cl)C(C)(C)[N+](=O)[O-])cc1` (stereo not given) showed a melting point of 40 to 41 °C.

`O=c1cc(-c2ccccc2)oc(N2CCOCC2)c1` displayed a melting point of 148 to 150 °C. In turn, `COc1c(Br)cccc1[N+](=O)[O-]` registered a melting point of 55 to 56 °C. In the case of `CCCCC(=O)N(Cc1cccc(OC)c1)c1cc(F)cc(-c2nnn[nH]2)c1`, the melting point fell in the range of 118 to 120 °C. As to `NC(=O)N1C(=O)C(C(=O)c2ccoc2)c2ncc(Cl)cc21` (stereo not given), the melting point was over 250 °C. As for `Cc1cc2c(=O)n3cc(C(N)=O)ccc3nc2s1`, the figure is 350 to 354 °C. The compound `CC(Cc1ccc(Oc2cc(Oc3ccccc3)nc(N3CCN(Cc4ccccc4)CC3)n2)cc1)(Oc1ccccc1)C(=O)O` (stereo not given) yielded a melting point of 135 to 137 °C.

In turn, `COc1cc(F)nc(N)n1` gave a melting point of 171 to 173 °C.

With `C[C@@H]1CN(CC(=O)Nc2ccccc2Cl)C[C@H](C)N1c1ncnc2sccc12`, the melting point was 206 to 207 °C. The compound `CC(C)OC(=O)C(C)NC(=O)C(CC(=O)O)NC(=O)C(C)N` (stereo not drawn) (H-Ala-Asp-Ala-OiPr; configuration not given here) had a melting point of 219 to 221 °C.

For the compound `COc1ccc(CNc2nc(SC)ncc2C(=O)c2cccnc2)cc1Cl`, the melting point fell in the range of 141 to 142 °C. Regarding `CC(C)n1c(=O)c(C(=O)NCC2CCN(CC3(O)CCOCC3)CC2)cc2c(Cl)cccc21`, the melting point was 227 °C.

Consider `CC(C)(C)OC(=O)N1CCC(c2ccc(COc3ccc([N+](=O)[O-])cc3)nc2)CC1`, for which the melting point lay within 149 to 150 °C. For `Cn1nc(-c2nc(C#Cc3ccccc3)c(N)nc2-c2ccccc2)ccc1=O`, the melting point lay within 234 to 236 °C. For the compound `COC(=O)C(C(=O)OC)c1ccc(C(=O)O)cc1[N+](=O)[O-]`, the melting point lay within 147 to 149 °C. On to `Cc1cccc(C(=O)N(NC(=O)NS(=O)(=O)c2ccc(Cl)cc2)C(C)(C)C)c1`, for which the melting point lay in the range of 184 to 188 °C. The compound `O=C(c1ccccc1)c1cccnc1Cl` yielded a melting point of 35 to 37 °C. In the case of `CCOc1ccnc(N2CCN(C(=O)c3ccccc3C#N)CC2)n1`, the melting point is 151 to 154 °C. As for `COc1cc2c(cc1S(=O)(=O)c1ccc(C)cc1)[C@@H](N1CCCC1=O)[C@H](O)C(C)(C)O2` (relative stereo), the melting point fell in the range of 263 to 265 °C. Compound `CNC(=O)N(O)Cc1ccc(-c2ccccc2)s1` displayed a melting point of 169 °C.

Turning to `Clc1ccc(Cl)n2nc(SCc3ccccc3)nc12`, the melting point lay in the range of 103 to 104 °C. As to `O=c1[nH]cnc2cscc12`, the melting point lay in the range of 275 to 278 °C.

What is called melting point is the temperature of the solid-liquid transition.
